Source: ChEMBL document CHEMBL1201862, “PubChem BioAssay data set” (2004)
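Protocol summary: plate cells (96-well), add compound at 5 concentrations, incubate 48 h, interpolate endpoints linearly. GI50: concentration for 50% inhibition of growth.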 The source made the active and inactive calls. Cut-off read from the data, not from the text of the source: active = GI50 up to about 1.1 µM and inactive = higher.

How the values were obtained:
Experiment in all cases: NCI-60 cell line screen, 48 h
NCI-H522 = tested on: NCI-H522
MOLT-4 = tested on: MOLT-4
SNB-19 = tested on: SNB-19
HL-60 = tested on: HL-60
DLD-1 = tested on: DLD-1
U-251 = tested on: U-251
HCT-15 = tested on: HCT-15
DMS-114 = tested on: DMS-114
UO-31 = tested on: UO-31
M14 = tested on: M14
OVCAR-4 = tested on: OVCAR-4
LXFL 529 = tested on: LXFL 529
SF-295 = tested on: SF-295
KM-20L2 = tested on: KM-20L2
M19-MEL = tested on: M19-MEL
LOX IMVI = tested on: LOX IMVI
NCI-H226 = tested on: NCI-H226
SN12C = tested on: SN12C

Measured: GI50

CCC1=C(CC)C1(C#N)[N+](=O)[O-]
inactive: NCI-H522 > 100 µM | MOLT-4 > 100 µM | SNB-19 > 100 µM | HL-60 > 100 µM | DLD-1 > 100 µM | U-251 > 100 µM | DMS-114 > 100 µM | UO-31 > 100 µM | M14 > 100 µM | OVCAR-4 > 100 µM | LXFL 529 > 100 µM | SF-295 > 100 µM | KM-20L2 > 100 µM | M19-MEL > 100 µM | LOX IMVI > 100 µM | NCI-H226 > 100 µM | SN12C > 100 µM
> 100 µM: HCT-15

CC(C)N(C(=O)C12C3C4C1C1C2C3C41C(=O)N(C(C)C)C(C)C)C(C)C (stereo not drawn)
inactive: NCI-H522 > 50 µM | MOLT-4 > 50 µM | SNB-19 > 50 µM | HL-60 > 50 µM | DLD-1 > 50 µM | U-251 > 50 µM | DMS-114 > 50 µM | UO-31 > 50 µM | M14 > 50 µM | OVCAR-4 > 50 µM | LXFL 529 > 50 µM | SF-295 > 50 µM | KM-20L2 > 50 µM | M19-MEL > 50 µM | LOX IMVI > 50 µM | NCI-H226 > 50 µM | SN12C > 50 µM
> 50 µM: HCT-15

CC1=C2C(=CC(C)(CO)C2O)C(=O)C(C)(O)C12CC2 (stereo not drawn)
active: NCI-H522 0.000776 µM | MOLT-4 0.00156 µM | SNB-19 0.00474 µM | HL-60 0.00131 µM | DLD-1 0.00895 µM | U-251 0.00102 µM | DMS-114 0.00205 µM | UO-31 0.00457 µM | M14 0.00327 µM | OVCAR-4 0.00243 µM | LXFL 529 0.00393 µM | SF-295 0.00115 µM | KM-20L2 0.00216 µM | M19-MEL 0.00337 µM | LOX IMVI 0.00161 µM | NCI-H226 0.00492 µM | SN12C 0.00705 µM
0.00197 µM: HCT-15

[N-]=[N+]=C1C(=O)C2CC3CC(C2)CC1C3
> 100 µM: HCT-15
inactive: NCI-H522 > 100 µM | MOLT-4 > 100 µM | SNB-19 > 100 µM | HL-60 > 100 µM | DLD-1 > 100 µM | U-251 > 100 µM | DMS-114 > 100 µM | UO-31 > 100 µM | M14 > 100 µM | OVCAR-4 > 100 µM | LXFL 529 > 100 µM | SF-295 > 100 µM | KM-20L2 > 100 µM | M19-MEL > 100 µM | LOX IMVI > 100 µM | NCI-H226 > 100 µM | SN12C > 100 µM

O=c1c(O)c(-c2ccc(O)c(O)c2)oc2cc(O)ccc12 [FISETIN]
14.4 µM: HCT-15
inactive: NCI-H522 13.6 µM | MOLT-4 17 µM | SNB-19 10.7 µM | HL-60 28.7 µM | DLD-1 20.2 µM | U-251 7.14 µM | DMS-114 15.2 µM | UO-31 14.5 µM | M14 18.2 µM | OVCAR-4 31 µM | LXFL 529 15 µM | SF-295 18.5 µM | KM-20L2 27.2 µM | M19-MEL 26 µM | LOX IMVI 13.6 µM | NCI-H226 9.79 µM | SN12C 20.8 µM

CC(=O)N1CC2Nc3ccccc3C2CC1CO (stereo not drawn)
inactive: NCI-H522 > 100 µM | MOLT-4 > 100 µM | SNB-19 > 100 µM | HL-60 > 100 µM | DLD-1 > 100 µM | U-251 > 100 µM | DMS-114 > 100 µM | UO-31 > 100 µM | M14 > 100 µM | OVCAR-4 > 100 µM | LXFL 529 > 100 µM | SF-295 > 100 µM | KM-20L2 > 100 µM | M19-MEL > 100 µM | LOX IMVI > 100 µM | NCI-H226 > 100 µM | SN12C > 100 µM
> 100 µM: HCT-15
